pEC50, pKd: −log10 of the molar value. Converted amounts (≈) assume the structure as drawn. Like-named read-outs stand apart in the source and are kept apart here.
Key:
PC12 mHTT^Q103 cells = assay: Rescue of PC12 cells from mHTT^Q103 induced cell death (Alamar blue viability); assay type: cell-based; settings: Table 5; for pEC50: Rattus norvegicus, PC-12, read-out: Cell Viability Assay EC50
Source text: PC12 mHTT^Q103 cells were a gift from Erik S. Schweitzer (UCLA School of Medicine, Los Angeles, Calif.). These cells are stably transfected with the first exon of human HTT gene containing the pathogenic 103 CAG/CAA repeat expansion, under the control of the ecdysteroid promoter (Aiken et al., 2004). The plasmid also contains a Bombyx mori ecdysone receptor gene fused at N-terminal with VP16 transactivation domain (Suhr et al., 1998; Vilaboa et al., 2011). Addition of the ecdysone analog, tebufenozide, to the cell culture medium is used to initiate the transcription of mutant HTT (Aiken et al., 2004).
PC12 mHTT^Q103 cells were cultured in DMEM containing 4.5 g/I glucose, 25 mM HEPES, sodium pyruvate, and no L-glutamine (Mediatech, cat. no. 15-018-CV), supplemented with 10% (v/v) Cosmic Calf serum, 2 mM L-glutamine, 100 units/mL of penicillin-streptomycin, and 0.5 mg/ml active geneticin. Cells were grown at 37° C., 9.5% CO2, and the medium was replaced with fresh medium every 2-3 days. To induce mHTT^Q103 expression for experiments, tebufenozide, a gift from Lynne Moore and Fred H. Gage (The Salk Institute for Biological Studies, La Jolla, Calif.), was added to the medium at 200 nM final concentration from 1 mM stock in 85% ethanol.
LOC mother plates with compounds at 4 mg/ml were thawed and spun down (1000 rpm, 20° C., 1 min) prior to use. Biomek FX (Beckman Coulter) robotic liquid dispenser was used to handle all liquid transferring and mixing. […] Two fold serial dilution was performed across five daughter plates by transferring 50 μl of compounds (at […]) from the D1 plate into 50 μl of PC12 medium in daughter plate D2, mixing, and then repeating the process for the remaining three plates. Daughter plate D1 with compounds at […], daughter plate D3 with compounds at 20 μl/ml and daughter plate D5 with compounds at 5 μl/ml were then used for the screen. Assay plates were set up by seeding tebufenozide-induced PC12 mHTT^Q103 cells into 384-well black, clear-bottom plates (Corning Inc. cat. no. 3712) at a density of 7,500 cells per well in 57 μl PC12 medium without geneticin. Three microliters of compound from the daughter plates (D1, D3, and D5) were added to the assay plates for a final compound concentration of 4 μl/ml, 1 μl/ml, and 0.25 μl/ml. Four wells containing uninduced PC12 mHTT^Q103 cells and four wells containing medium only, were also included on each plate as controls. The assay plates were incubated at 37° C., 9.5% CO2 for 48 hours. Twenty microliters of 40% Alamar blue (Life Technologies cat. no. DAL1100) solution in PC12 medium was added to each well (1:10 final dilution) and the plates were incubated for an additional 12-24 hours at 37° C., 9.5% CO2. Alamar blue fluorescence was read on a fluorescence plate reader (PerkinElmer Victor3) with 530 nm excitation filter and 590 nm emission filter. Each compound concentration was tested in triplicate.
The follow-up testing of primary screen hits was performed in a similar way. Fresh powder stocks of primary hits were re-ordered from vendors, dissolved in DMSO and tested in a two-fold serial dilution across 10 wells in both tebufenozide-induced and uninduced PC12 mHTT^Q103 cells. Dose-response curves were plotted as mean±SD and fit to either four-parameter sigmoidal (for uninduced cells) or bell-shaped (induced) function using Prism (GraphPad Software).
A cascade of two assays was used, involving both a phenotypic high-throughput screening (HTS) assay and an in vitro PDI reductase assay, to identify neuroprotective PDI-inhibiting compounds. […] Alamar blue was used as a fluorescent readout for viability after 48 hours of compound treatment and mHTT^Q103 induction. […] All the candidate hit compounds were re-tested in a two-fold dilution series.

[1] = molecular target: T1, recombinant catalytic a domain of human PDI A1 (PDIa) (Homo sapiens, UniProt P07237); assay: Insulin aggregation assay (PDIa reductase activity); assay type: biochemical; settings: Table 5
T1 construct: made in house; host or cells: Escherichia coli BL21-Gold (DE3)
Source text: In this insulin aggregation assay (Xu et al., 2012; Jasuja et al., 2012; Khan et al., 2011; Smith et al., 2004), PDIa reduced the two disulfide bonds between the α- and β-chains of insulin, causing the β-chain to aggregate and precipitate, resulting in an increase in absorbance at 650 nm.
To investigate the mode of binding further and to determine whether the binding was reversible or irreversible, the recovery of enzymatic activity of PDIa after dilution of pre-formed concentrated PDIa-LOC14 complexes was analyzed. LOC14 (750 μM) was incubated with a concentrated solution of PDIa (500 μM). The mixture was then diluted 100-fold and PDI's enzymatic activity was measured in the insulin reduction assay. As a control, the same procedure was also performed on the sample containing an irreversible inhibitor, 16F16 (16F16 at 750 μM and PDIa at 500 μM). […] This illustrated that unlike 16F16, LOC14 binding to PDIa is reversible.

[2] = molecular target: T2, human catalytic PDI A1 a domain (PDIa) (Homo sapiens, UniProt P07237); assay: Isothermal titration calorimetry (ITC) binding to PDIa; settings: PDIa
T2 construct: made in house; host or cells: Escherichia coli BL21-Gold (DE3)
Procedure: All ITC experiments were carried out at 25° C. on MicoCal Auto-ITC200 system (GE Healthcare). Reduced PDIa was dialyzed into ITC buffer (20 mM sodium phosphate buffer pH 7.8) and loaded into a sample cell at 40 μM concentration. The compound solution was loaded into a syringe at 400 μM in the same ITC buffer with a final DMSO concentration at 0.4% (v/v). ITC titration experiments were carried out at 25° C. with 19 injections, 2 μl per injection, and 180 seconds between each injection. The reference cell power was set to 5 μcal/sec. A control experiment was performed for each compound, where each compound was titrated into buffer to account for heat released due to dilution. This background was subtracted from test data before a final dissociation constant was obtained. Data were analyzed using a one-site binding model in Origin 7.1 software. […] Gibbs free energy, ΔG, was calculated from equation ΔG=ΔH−TΔS. All other parameters, Ka, n, ΔH, ΔS, were determined directly from the titration data.
For ITC experiments with 16F16 pre-treatment, 40 μM PDIa (after dialysis into ITC buffer) was treated with 200 μM 16F16 for 12-15 hours at 4° C. Next day the whole solution was loaded into the sample cell. LOC14 at 400 μM in ITC buffer was loaded into syringe and titrated into PDIa+16F16 loaded cell. For control experiments, ITC buffer with 200 μM 16F16 was used in the cell, while 400 μM LOC14 in ITC buffer was used in the syringe.
The binding mode of LOC14 to PDIa was next investigated using isothermal titration calorimetry (ITC). ITC measures the heat released or absorbed during a biomolecular interaction. It is a direct analytical method for determining the binding and thermodynamic parameters, such as reaction stoichiometry (n), binding constants (Ka and Kd), enthalpy (ΔH), entropy (ΔS), and free energy (ΔG) of an interaction.

Solubility = settings: DMSO, Table 5
physchem = settings: organic solvent or mixture
[3] = Table 5, read-out: ITC Assay KD

T1 sequence (P07237 with tags, fused parts or gaps): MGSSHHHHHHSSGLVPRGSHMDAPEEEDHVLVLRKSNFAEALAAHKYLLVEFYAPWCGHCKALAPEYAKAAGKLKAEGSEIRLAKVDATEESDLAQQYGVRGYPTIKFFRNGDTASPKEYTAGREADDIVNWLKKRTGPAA
T2 sequence (P07237 with tags, fused parts or gaps): as above

SMILES | pEC50 (PC12 mHTT^Q103 cells) | Insulin Assay (either active or inactive) [1] | pKd ([2]; Table 4, read-out: ITC KD) | pKd [2, 3] | Solubility in DMSO (Solubility) [mM in DMSO] | ITC Assay KD ([2]; Table 5) | solubility (physchem) [mM] | Cell Viability Assay EC50 (PC12 mHTT^Q103 cells) | solubility (physchem; DMSO) [mM]
O=c1c2ccccc2sn1CN1CCCCC1 [LC-1] | 6.34 | Active | 6.97 | 6.97 | 100 | – | – | – | –
CN1CCN(Cn2sc3ccccc3c2=O)CC1 [LC-2] | 6.38 | Active | 6.87 | 7.04 | 100 | – | – | – | –
O=c1c2ccccc2sn1CN1CCSCC1 [LC-3] | 6.33 | Active | 7.04 | 7.04 | 100 | – | – | – | –
O=c1c2ccccc2sn1CN1CCC(CO)CC1 [LC-4] | 6.47 | Active | 6.58 | 6.58 | 100 | – | – | – | –
O=c1c2ccccc2sn1CN1CCC(O)CC1 [LC-7] | 6.36 | Active | 6.67 | 6.67 | 100 | – | – | – | –
CC(C)(C)OC(=O)N1CCN(Cn2sc3ccccc3c2=O)CC1 [LC-10] | 6.24 | Active | 6.91 | 6.91 | 100 | – | – | – | –
O=c1c2ccccc2sn1CN1CCN(c2ncccn2)CC1 [LC-12] | 6.38 | Active | 6.85 | 6.85 | 100 | – | – | – | –
CC(=O)c1ccc(N2CCN(Cn3sc4ccccc4c3=O)CC2)cc1 [LC-13] | 6.29 | Active | 6.72 | 6.72 | 100 | – | – | – | –
O=c1c2ccccc2sn1Cn1sc2ccccc2c1=O [LC-17, 2,2′-methylenebis(benzo[d]isothiazol-3(2H)-one)] | 6.64 | Active | – | 6.80 | 100 | – | – | – | –
O=C(Nc1ccccc1)c1ccccc1S [LC-19] | – | not active | – | – | – | KD = N/A irreversible or not active | 50 (≈ 11500 µg/mL) | – | –
Cc1ccc(NC(=O)c2ccccc2S)c(Br)c1 [LC-34] | 5.42 | not active | – | – | – | KD = N/A irreversible or not active | – | – | –
Cn1sccc1=O [LC-35] | – | Active | – | – | – | KD = N/A irreversible or not active | – | Not Active | –
Cc1ccc(-n2sc3ccccc3c2=O)c(Br)c1 [LC-36] | 5.80 | not active | – | 7.60 | – | – | – | – | –
O=c1c2ccccc2sn1-c1ccc(Oc2ccccc2)cc1 [LC-37] | 5.77 | not active | – | – | – | KD = N/A irreversible or not active | – | – | –
O=c1[nH]sc2c(F)cccc12 [LC-40] | 5.03 | Active | – | – | – | KD = N/A irreversible or not active | – | – | –
O=C(C1CC1)N1CCN(Cn2sc3c(F)cccc3c2=O)CC1 [LC-43] | 5.13 | Active | – | – | – | KD = N/A irreversible or not active | – | – | –
NC(=O)c1cccc(F)c1SSc1c(F)cccc1C(N)=O [LC-44] | 5.15 | Active | – | – | – | KD = N/A irreversible or not active | – | – | –
Cc1cc(C)c2c(=O)ssc2n1 [LC-50] | 5.29 | Active | – | – | 100 | – | – | – | –
Cc1nc2s[nH]c(=O)c2c(C)c1C [LC-51] | 5.66 | Active | – | – | – | – | – | – | 10 (≈ 1940 µg/mL)
Cc1nc2sn(CN3CCN(C(=O)C4CC4)CC3)c(=O)c2c(C)c1C [LC-52] | 5.45 | Active | – | – | – | – | – | – | 10 (≈ 3600 µg/mL)
Cc1nnc2sn(C(C)N3CCC(C(=O)C4CC4)CC3)c(=O)c2c1C (centres unmarked) [LC-59] | 4.97 | Active | – | – | 100 | – | – | – | –

Source: patent publication US20180092908A1, “SMALL MOLECULE OXIDIZERS OF PDI AND THEIR USE” (THE TRUSTEES OF COLUMBIA UNIVERSITY IN THE CITY OF NEW YORK, priority 2015, published 2018)
